Assays:
[1] = target: T1, EP3 membrane (EP3 receptor) (Homo sapiens, UniProt P43115); experiment: [3H]-PGE2 binding; EP3 competition binding (SPA)
T1 construct: purchased Millipore HTS092M
T1 sequence (P43115 1-390): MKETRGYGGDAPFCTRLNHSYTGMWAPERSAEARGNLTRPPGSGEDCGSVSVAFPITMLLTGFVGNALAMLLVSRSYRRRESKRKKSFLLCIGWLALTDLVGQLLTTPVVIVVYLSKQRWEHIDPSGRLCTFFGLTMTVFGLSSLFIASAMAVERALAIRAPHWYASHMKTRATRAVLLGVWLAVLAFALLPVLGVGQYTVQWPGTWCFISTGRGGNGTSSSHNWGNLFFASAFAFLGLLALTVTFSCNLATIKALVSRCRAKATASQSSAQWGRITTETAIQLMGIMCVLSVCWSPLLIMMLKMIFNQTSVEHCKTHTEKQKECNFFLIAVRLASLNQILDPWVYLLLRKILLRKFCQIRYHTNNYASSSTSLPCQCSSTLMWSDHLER
Procedure, shortened: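 SPA competition at room temperature, 2 h: EP3 membranes 2 μg/well, 2 nM [3H]-PGE2, 0.1% DMSO, in Tris/MgCl2/EDTA buffer pH 7.4. Compounds in 1:3 serial dilution; scintillation read; Ki by one-site nonlinear fit.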

[2] = target: T2, CHO cells over-expressing the EP3 receptor (Homo sapiens, UniProt P43115); experiment: CHO cell cAMP assay; EP3 cAMP antagonist dose response (sulprostone reference), HTRF; assay type: cell-based; settings: sulprostone 700 nM (EC80) and FSK 2 μM (EC70); read-out: CHO_cAMP IC50
T2 construct: expressed in transfected cells; host or cells: CHO cells
T2 sequence (P43115 1-390): T1 sequence (P43115 1-390)
Procedure, shortened: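 EP3-overexpressing CHO cells pre-incubated with test compound, then stimulated 30 min at 37 °C with FSK (2 μM, EC70) plus sulprostone (700 nM, EC80); antagonism seen as restored cAMP. cAMP measured by HTRF 665/615 ratio, converted via on-plate standard curve. IC50 from Hill fit of 11-point dosing.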

SMILES	Ki [1] [µM]	IC50 [2] [µM]
O=C(CC/C=C1\CCCc2cnn(-c3cccc(-c4ccccc4)c3)c21)NS(=O)(=O)c1cc(Cl)c(Cl)s1 [Compound #52, (E)-4-(1-([1,1′-biphenyl]-3-yl)-1,4,5,6-tetrahydro-7H-indazol-7-ylidene)-N-((4,5-dichlorothiophen-2-yl)sulfonyl)butanamide]	0.001	0.003
O=C(CC/C=C1\CCCc2cnn(-c3cccc(-c4ccc(Cl)cc4Cl)c3)c21)NS(=O)(=O)c1cc(Cl)c(Cl)s1 [Compound #53, (E)-4-(1-(2′,4′-dichloro-[1,1′-biphenyl]-3-yl)-1,4,5,6-tetrahydro-7H-indazol-7-ylidene)-N-((4,5-dichlorothiophen-2-yl)sulfonyl)butanamide]	0.004	0.018
O=C(NC/C(F)=C1\COCc2cnn(Cc3ccc(Cl)cc3Cl)c21)NS(=O)(=O)c1cc(Cl)c(Cl)s1 [Compound #54, (E)-4,5-dichloro-N-((2-(1-(2,4-dichlorobenzyl)-1,4-dihydropyrano[4,3-c]pyrazol-7(6H)-ylidene)-2-fluoroethyl)carbamoyl)thiophene-2-sulfonamide]	0.003	0.024
CN(C/C=C1\COCc2cnn(Cc3ccc(Cl)cc3Cl)c21)C(=O)NS(=O)(=O)c1cc(Cl)c(Cl)s1 [Compound #55, (Z)-4,5-dichloro-N-((2-(1-(2,4-dichlorobenzyl)-1,4-dihydropyrano[4,3-c]pyrazol-7(6H)-ylidene)ethyl)(methyl)carbamoyl)thiophene-2-sulfonamide]	0.003	0.011
O=C(CC/C(F)=C1\CCCc2cnn(Cc3ccc(Cl)cc3Cl)c21)NS(=O)(=O)c1cc(Cl)c(Cl)s1 [Compound #56, (Z)-4-(1-(2,4-dichlorobenzyl)-1,4,5,6-tetrahydro-7H-indazol-7-ylidene)-N-((4,5-dichlorothiophen-2-yl)sulfonyl)-4-fluorobutanamide]	0.001	0.004
O=C(CC/C=C1\COCc2cnn(Cc3ccc(Cl)cc3Cl)c21)NS(=O)(=O)c1cc(Cl)c(Cl)s1 [Compound #57, (Z)-4-(1-(2,4-dichlorobenzyl)-1,4-dihydropyrano[4,3-c]pyrazol-7(6H)-ylidene)-N-((4,5-dichlorothiophen-2-yl)sulfonyl)butanamide]	0.001	0.003
COc1ccccc1S(=O)(=O)NC(=O)NC/C=C1\COCc2cnn(Cc3ccc(Cl)cc3Cl)c21 [Compound #58, (Z)—N-((2-(1-(2,4-dichlorobenzyl)-1,4-dihydropyrano[4,3-c]pyrazol-7(6H)-ylidene)ethyl)carbamoyl)-2-methoxybenzenesulfonamide]	0.11	1.3
CN(C/C(F)=C1\CCCc2cnn(Cc3ccc(Cl)cc3Cl)c21)C(=O)NS(=O)(=O)c1cc(Cl)c(Cl)s1 [Compound #59, (Z)-4,5-dichloro-N-((2-(1-(2,4-dichlorobenzyl)-1,4,5,6-tetrahydro-7H-indazol-7-ylidene)-2-fluoroethyl)(methyl)carbamoyl)thiophene-2-sulfonamide]	0.005	0.012
O=C(NC/C(F)=C1/COCc2cnn(Cc3ccc(Cl)cc3Cl)c21)NS(=O)(=O)c1cc(Cl)c(Cl)s1 [Compound #60, (Z)-4,5-dichloro-N-((2-(1-(2,4-dichlorobenzyl)-1,4-dihydropyrano[4,3-c]pyrazol-7(6H)-ylidene)-2-fluoroethyl)carbamoyl)thiophene-2-sulfonamide]	0.007	0.004
O=C(CC/C(F)=C1\COCc2cnn(Cc3ccc(Cl)cc3Cl)c21)NS(=O)(=O)c1cc(Cl)c(Cl)s1 [Compound #61, (E)-4-(1-(2,4-dichlorobenzyl)-1,4-dihydropyrano[4,3-c]pyrazol-7(6H)-ylidene)-N-((4,5-dichlorothiophen-2-yl)sulfonyl)-4-fluorobutanamide]	0.007	0.017
COc1ccc(S(=O)(=O)NC(=O)NC/C=C2\COCc3cnn(Cc4ccc(Cl)cc4Cl)c32)cc1 [Compound #62, (Z)—N-((2-(1-(2,4-dichlorobenzyl)-1,4-dihydropyrano[4,3-c]pyrazol-7(6H)-ylidene)ethyl)carbamoyl)-4-methoxybenzenesulfonamide]	0.063	0.245
COc1cccc(S(=O)(=O)NC(=O)NC/C=C2\COCc3cnn(Cc4ccc(Cl)cc4Cl)c32)c1 [Compound #63, (Z)—N-((2-(1-(2,4-dichlorobenzyl)-1,4-dihydropyrano[4,3-c]pyrazol-7(6H)-ylidene)ethyl)carbamoyl)-3-methoxybenzenesulfonamide]	0.044	0.121
COc1ccc(F)cc1S(=O)(=O)NC(=O)NC/C=C1\COCc2cnn(Cc3ccc(Cl)cc3Cl)c21 [Compound #64, (Z)—N-((2-(1-(2,4-dichlorobenzyl)-1,4-dihydropyrano[4,3-c]pyrazol-7(6H)-ylidene)ethyl)carbamoyl)-5-fluoro-2-methoxybenzenesulfonamide]	0.012	0.081
COc1ccc(Cl)c(S(=O)(=O)NC(=O)NC/C=C2\COCc3cnn(Cc4ccc(Cl)cc4Cl)c32)c1 [Compound #65, (Z)-2-chloro-N-((2-(1-(2,4-dichlorobenzyl)-1,4-dihydropyrano[4,3-c]pyrazol-7(6H)-ylidene)ethyl)carbamoyl)-5-methoxybenzenesulfonamide]	0.027	0.044
COc1ccc(Cl)cc1S(=O)(=O)NC(=O)NC/C=C1\COCc2cnn(Cc3ccc(Cl)cc3Cl)c21 [Compound #66, (Z)-5-chloro-N-((2-(1-(2,4-dichlorobenzyl)-1,4-dihydropyrano[4,3-c]pyrazol-7(6H)-ylidene)ethyl)carbamoyl)-2-methoxybenzenesulfonamide]	0.004	0.021
COc1ccc(S(=O)(=O)NC(=O)NC/C=C2\COCc3cnn(Cc4ccc(Cl)cc4Cl)c32)cn1 [Compound #67, (Z)—N-((2-(1-(2,4-dichlorobenzyl)-1,4-dihydropyrano[4,3-c]pyrazol-7(6H)-ylidene)ethyl)carbamoyl)-6-methoxypyridine-3-sulfonamide]	0.026	0.074
COc1ccc(F)c(S(=O)(=O)NC(=O)NC/C=C2\COCc3cnn(Cc4ccc(Cl)cc4Cl)c32)c1 [Compound #68, (Z)—N-((2-(1-(2,4-dichlorobenzyl)-1,4-dihydropyrano[4,3-c]pyrazol-7(6H)-ylidene)ethyl)carbamoyl)-2-fluoro-5-methoxybenzenesulfonamide]	0.027	0.032
CC(C)S(=O)(=O)NC(=O)CC/C=C1\CCCc2cnn(Cc3ccc(Cl)cc3Cl)c21 [Compound #69, (E)-4-(1-(2,4-dichlorobenzyl)-1,4,5,6-tetrahydro-7H-indazol-7-ylidene)-N-(isopropylsulfonyl)butanamide]	0.179	0.118
O=C(NC/C=C1\CC(F)(F)Cc2cnn(-c3cccc(C(F)(F)F)c3)c21)NS(=O)(=O)c1ccc(Cl)cc1 [Compound #70, (E)-4-chloro-N-((2-(5,5-difluoro-1-(3-(trifluoromethyl)phenyl)-1,4,5,6-tetrahydro-7H-indazol-7-ylidene)ethyl)carbamoyl)benzenesulfonamide]	1	8.2
O=C(NC/C=C1/c2c(cnn2Cc2ccc(Cl)cc2Cl)CCC1F)NS(=O)(=O)c1ccc(Cl)cc1 (stereo not drawn) [Compound #73, (Z)-4-chloro-N-((2-(1-(2,4-dichlorobenzyl)-6-fluoro-1,4,5,6-tetrahydro-7H-indazol-7-ylidene)ethyl)carbamoyl)benzenesulfonamide]	0.003	0.005
CN(C/C(F)=C1\COCc2cnn(Cc3ccc(Cl)cc3Cl)c21)C(=O)NS(=O)(=O)c1cc(Cl)c(Cl)s1 [Compound #74, (E)-4,5-dichloro-N-((2-(1-(2,4-dichlorobenzyl)-1,4-dihydropyrano[4,3-c]pyrazol-7(6H)-ylidene)-2-fluoroethyl)(methyl)carbamoyl)thiophene-2-sulfonamide]	0.035	0.031
O=C(NC/C=C1\CCCc2cnn(-c3ccc(Br)cc3)c21)NS(=O)(=O)c1cc(Cl)c(Cl)s1 [Compound #75, (E)-N-((2-(1-(4-bromophenyl)-1,4,5,6-tetrahydro-7H-indazol-7-ylidene)ethyl)carbamoyl)-4,5-dichlorothiophene-2-sulfonamide]	0.001	0.004
O=C(NC/C=C1\CCCc2cnn(-c3cccc(-c4ccc(F)cc4)c3)c21)NS(=O)(=O)c1cc(Cl)c(Cl)s1 [Compound #76, (E)-4,5-dichloro-N-((2-(1-(4′-fluoro-[1,1′-biphenyl]-3-yl)-1,4,5,6-tetrahydro-7H-indazol-7-ylidene)ethyl)carbamoyl)thiophene-2-sulfonamide]	0.002	0.009
O=C(NC/C=C1\CCCc2cnn(-c3cccc(Br)c3)c21)NS(=O)(=O)c1cc(Cl)c(Cl)s1 [Compound #77, (E)-N-((2-(1-(3-bromophenyl)-1,4,5,6-tetrahydro-7H-indazol-7-ylidene)ethyl)carbamoyl)-4,5-dichlorothiophene-2-sulfonamide]	0.012	0.258

From patent US20210253562A1, “ACYLSUFONAMIDE COMPOUNDS USEFUL AS EP3 RECEPTOR ANTAGONISTS” (Janssen Pharmaceutica NV, priority 2018, published 2021)
